PMC5041982, “Small-molecule inhibition of STAT3 in radioresistant head and neck squamous cell carcinoma” (Oncotarget, 2016)
Like-named read-outs stand apart in the source and are kept apart here.

Tests used:
STAT3 [1] = target: T1, STAT3 (Homo sapiens, UniProt P40763); assay: STAT3/pY-peptide binding surface plasmon resonance (SPR) assay; settings: for Inhibition of STAT3 binding to pY-peptide compared with C188: SPR; for IC50: STAT3 200 nM, EGFR pY1068 dodecapeptide, mean, n ≥ 2, read-out: pY-Peptide Binding (SPR) IC50
T1 sequence (P40763 whole entry, species assumed): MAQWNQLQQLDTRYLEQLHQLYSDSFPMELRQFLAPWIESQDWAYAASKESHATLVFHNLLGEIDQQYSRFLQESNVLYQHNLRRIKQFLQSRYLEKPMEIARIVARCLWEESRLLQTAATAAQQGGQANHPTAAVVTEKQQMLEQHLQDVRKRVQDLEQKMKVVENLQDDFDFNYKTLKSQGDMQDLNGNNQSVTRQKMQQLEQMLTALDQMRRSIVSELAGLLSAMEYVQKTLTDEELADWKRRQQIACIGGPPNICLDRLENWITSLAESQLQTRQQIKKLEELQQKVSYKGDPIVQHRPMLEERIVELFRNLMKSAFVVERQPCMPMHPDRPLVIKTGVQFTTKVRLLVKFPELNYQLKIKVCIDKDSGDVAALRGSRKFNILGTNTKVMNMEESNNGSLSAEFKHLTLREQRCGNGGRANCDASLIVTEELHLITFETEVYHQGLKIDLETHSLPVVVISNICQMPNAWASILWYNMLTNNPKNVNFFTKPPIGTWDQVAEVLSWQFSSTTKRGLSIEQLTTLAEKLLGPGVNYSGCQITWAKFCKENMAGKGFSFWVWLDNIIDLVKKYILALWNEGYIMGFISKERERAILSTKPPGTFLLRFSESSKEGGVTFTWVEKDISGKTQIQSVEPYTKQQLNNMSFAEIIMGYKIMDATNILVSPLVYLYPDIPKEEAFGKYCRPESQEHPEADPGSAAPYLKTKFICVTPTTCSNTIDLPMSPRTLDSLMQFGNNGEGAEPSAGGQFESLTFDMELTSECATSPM
Experimental: The equilibrium binding levels obtained ± compound were normalized (resonance obtained in the presence of compound ÷ the resonance obtained in the absence of compound × 100) and plotted against Log [nM] […] B. Inhibition of ligand-stimulated STAT phosphorylation, measured by phosphoflow. Serum-starved (1 hour) Kasumi-1 cells, pre-incubated with compound/DMSO (1 hour), were treated with G-CSF (10 ng/ml, 15 min, left two panels) or IFN-γ (10ng/ml, 15 min, right panel). Cells were permeabilized and stained with Alexa647-pSTAT3, and PE-pSTAT1 antibodies and analyzed on BD LSR2. FCS files were uploaded to Cytobank for pSTAT3 and pSTAT1 quantitation. Histograms depicting pSTAT3 and pSTAT1 levels are shown. C. Mean fluorescence (pSTAT3/1) levels were plotted as function the Log [M] compound, and IC50 calculated using GraphPad. […] D. Inhibition of ligand-stimulated STAT phosphorylation, measured by Luminex. Serum-starved (1 hour) Kasumi-1 cells, pre-incubated with compound/DMSO (0/0.1/0.3/1/3/10/100 μM, 1 hour), were treated with G-CSF (10 ng/ml, 15′). Total protein extracts of cells were assayed for pSTAT3, pSTAT1, and GAPDH levels by Luminex. GAPDH-normalized pSTAT3 or pSTAT1 values were divided by this ratio for untreated cells and expressed in percentage. These values were plotted as a function of Log [M] compound, and IC50 values calculated using GraphPad. […]
3-D pharmacophore sorting used to evaluate the effect of each compound on STAT3 binding. Responses were normalized by dividing the […]
fingerprint screening were converted into 3-D structures compounds at 2 min and multiplying by 100. IC values […]
for analysis as described below. were determined by plotting % maximum response as a 3-D pharmacophore generation function of log concentration of compound and fitting the Each molecular chemical feature, including experimental points to a competitive binding model using hydrogen bond donor, hydrogen bond acceptor, positive a four parameter logistic equation: R = Rhigh − (Rhigh − R low)/ (1 + conc/A1)^A2, where R = percent response at and negative ionizable group, and hydrophobic region, inhibitor concentration, R = percent response with no was generated using the LigandScout application compound, R= percent response at highest compound high framework and projected into 3-D space. concentration, A2 = fitting parameter (slope) and A1 = low Feature-pairing IC50 (BIAevaluation Software version 4.1). The inhibition Each chemical feature was converted into distance constant (Ki) was derived from the Cheng-Prusoff bin and the complete set of distance bins used to construct equation Ki=IC50/(1+[C]/Kd) as used by Halling et al a cost matrix. The most favorable pairing based on cost where C stands for STAT3 concentration used in the SPR matrix was identified. assay and Kd denotes the dissociation constant for STAT3 3-D pharmacophore transformation binding to its phosphorylated EGFR ligand in the SPR […]
STAT3/pY-peptide binding assay and total protein extracted from cell pellets. […]
STAT3 binding assays were performed at 25 °C (Millipore, Danvers, MA) coupled to antibody against

pSTAT3 (Tyr-705) = target: T2, pSTAT3 (Tyr-705) (Homo sapiens, UniProt P40763); assay: Phosphoflow, G-CSF-induced STAT3 phosphorylation in Kasumi-1 cells; format: cell-based; settings: Kasumi-1, G-CSF 10 ng/ml 15 min; mean, n ≥ 2; read-out: Ligand Induced Phosphorylation (Phosphoflow) pSTAT3 (GCSF) IC50
T2 construct: endogenous in cells; host or cells: Kasumi-1
T2 sequence (P40763 whole entry): as the sequence (P40763 whole entry, species assumed) above
Experimental: (§1) The equilibrium binding levels obtained ± compound were normalized (resonance obtained in the presence of compound ÷ the resonance obtained in the absence of compound × 100) and plotted against Log [nM] […] B. Inhibition of ligand-stimulated STAT phosphorylation, measured by phosphoflow. Serum-starved (1 hour) Kasumi-1 cells, pre-incubated with compound/DMSO (1 hour), were treated with G-CSF (10 ng/ml, 15 min, left two panels) or IFN-γ (10ng/ml, 15 min, right panel). Cells were permeabilized and stained with Alexa647-pSTAT3, and PE-pSTAT1 antibodies and analyzed on BD LSR2. FCS files were uploaded to Cytobank for pSTAT3 and pSTAT1 quantitation. Histograms depicting pSTAT3 and pSTAT1 levels are shown. C. Mean fluorescence (pSTAT3/1) levels were plotted as function the Log [M] compound, and IC50 calculated using GraphPad. […] D. Inhibition of ligand-stimulated STAT phosphorylation, measured by Luminex. Serum-starved (1 hour) Kasumi-1 cells, pre-incubated with compound/DMSO (0/0.1/0.3/1/3/10/100 μM, 1 hour), were treated with G-CSF (10 ng/ml, 15′). Total protein extracts of cells were assayed for pSTAT3, pSTAT1, and GAPDH levels by Luminex. GAPDH-normalized pSTAT3 or pSTAT1 values were divided by this ratio for untreated cells and expressed in percentage. These values were plotted as a function of Log [M] compound, and IC50 values calculated using GraphPad.
(§2) Phosphoflow analysis was done as described in Xu et al. Briefly, Kasumi-1 cells, were serum-starved, pre-treated with compound or DMSO (1 hour, RT) and then stimulated with 20 μl of GCSF (10 ng/ml) for 15 minutes at 37°C. The cells were then permeabilized and stained with Alexa647-pSTAT3, Alexa488-pSTAT5 and PE-pSTAT1 antibodies and analyzed using the BD LSR2. FCS files were exported and uploaded to Cytobank for determination of phosphoproteins as earlier. Gating was done on live, single cells and then gates selected for positive ligand-activated pSTAT3 and pSTAT1. IC50 values were calculated using the GraphPad Prism.

pSTAT5 = assay: Phosphoflow, G-CSF-induced pSTAT5 in Kasumi-1 cells; format: cell-based; settings: mean, n ≥ 2, read-out: Ligand Induced Phosphorylation (Phosphoflow) pSTAT5 (G-CSF) IC50
Experimental: as §2

pSTAT1 (Tyr-701) = target: T3, pSTAT1 (Tyr-701) (Homo sapiens, UniProt P42224); assay: Phosphoflow, IFN-γ-induced pSTAT1 in Kasumi-1 cells; format: cell-based; settings: Kasumi-1, IFN-γ 10 ng/ml 15 min; mean, n ≥ 2; read-out: Ligand Induced Phosphorylation (Phosphoflow) pSTAT1 (IFN-γ) IC50
T3 construct: endogenous in cells; host or cells: Kasumi-1
T3 sequence (P42224 1-750): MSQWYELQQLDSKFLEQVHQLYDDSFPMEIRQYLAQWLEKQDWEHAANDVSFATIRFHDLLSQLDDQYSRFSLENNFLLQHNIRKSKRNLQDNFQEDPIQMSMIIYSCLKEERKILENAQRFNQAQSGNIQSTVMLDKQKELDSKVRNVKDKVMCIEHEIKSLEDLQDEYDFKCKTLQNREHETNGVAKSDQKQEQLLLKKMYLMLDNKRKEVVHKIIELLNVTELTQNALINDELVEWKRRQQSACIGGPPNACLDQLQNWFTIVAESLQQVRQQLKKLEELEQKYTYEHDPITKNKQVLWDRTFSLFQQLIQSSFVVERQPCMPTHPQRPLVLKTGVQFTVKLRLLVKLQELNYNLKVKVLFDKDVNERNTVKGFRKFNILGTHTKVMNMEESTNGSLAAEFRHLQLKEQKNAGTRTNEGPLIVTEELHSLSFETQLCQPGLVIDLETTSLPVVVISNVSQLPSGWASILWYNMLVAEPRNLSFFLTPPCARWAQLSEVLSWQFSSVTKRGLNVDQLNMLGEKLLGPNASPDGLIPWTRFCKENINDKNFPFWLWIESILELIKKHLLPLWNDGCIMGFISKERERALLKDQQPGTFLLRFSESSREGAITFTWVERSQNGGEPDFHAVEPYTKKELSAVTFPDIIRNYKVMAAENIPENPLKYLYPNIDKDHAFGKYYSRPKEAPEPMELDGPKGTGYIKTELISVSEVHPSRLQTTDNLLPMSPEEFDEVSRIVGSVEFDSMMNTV
Experimental: as §1, §2

[2] = system: normal murine bone marrow colony formation; assay: Normal murine bone marrow colony formation; format: cell-based; settings: studies not shown (Tweardy et al 2010, unpublished)
STAT3 [3] = target: T1, STAT3; design: method as in PMID 17114005; settings: read-out: IC50 inhibition of STAT3 binding to pY-peptide; cited from earlier work

| Inhibition of STAT3 binding to pY-peptide compared with C188 (STAT3 [1]) | IC50 (STAT3 [1]) | IC50 (pSTAT3 (Tyr-705)) | IC50 (pSTAT5) | IC50 (pSTAT1 (Tyr-701)) | Inhibition of normal murine bone marrow colony formation [2] | Structure (SMILES) | IC50 (STAT3 [3]) |
| --- | --- | --- | --- | --- | --- | --- | --- |
| – | > 300 µM | > 300 µM | > 300 µM | > 300 µM | – | O=S(=O)(Nc1cccc2ccccc12)c1ccc(Cl)cc1 [Compound C188-24] | – |
| – | 45 ± 8.5 µM | > 300 µM | > 300 µM | 17 µM | – | CC1(C)CC(=O)c2c(oc3c2cc(NS(=O)(=O)c2ccc(Br)cc2)c2ccccc23)C1 [Compound C188-25] | – |
| – | 70.5 ± 70 µM | > 300 µM | > 300 µM | > 300 µM | – | Cc1oc2c(cc(NS(=O)(=O)c3ccc(Cl)cc3)c3ccccc32)c1C(=O)OCc1ccccc1 [Compound C188-30] | – |
| – | 42 ± 7.1 µM | 13 µM | > 300 µM | 47 µM | – | Cc1cc(C)c(S(=O)(=O)Nc2cc(C(C(=O)OC(C)C)C(=O)C(F)(F)F)c(O)c3ccccc23)cc1C (stereo not shown) [Compound C188-31] | – |
| – | 48 ± 19.8 µM | 7.5 ± 3.6 µM | > 300 µM | 3 µM | – | Cc1ccc(S(=O)(=O)Nc2cc3sc(=O)oc3c3ccccc23)c(C)c1 [Compound C188-32] | – |
| – | 20 ± 4.2 µM | 7.9 ± 5.8 µM | 6 µM | 10 µM | – | CC(C)(C)c1ccc(S(=O)(=O)Nc2cc3sc(=O)oc3c3ccccc23)cc1 [Compound C188-33] | – |
| – | 13.5 ± 3.5 µM | > 300 µM | > 300 µM | > 300 µM | – | Cc1cc(S(=O)(=O)Nc2cc3c4c(oc3c3ccccc23)CCCC4=O)ccc1Cl [Compound C188-34] | – |
| – | 31.5 ± 7.8 µM | > 300 µM | > 300 µM | > 300 µM | – | CC(C)(C)c1ccc(S(=O)(=O)Nc2cc3c4c(oc3c3ccccc23)CCCC4=O)cc1 [Compound C188-36] | – |
| – | 24.5 ± 6.4 µM | > 300 µM | > 300 µM | > 300 µM | – | CC(C)c1ccc(S(=O)(=O)Nc2cc3c4c(oc3c3ccccc23)CCCC4)cc1 [Compound C188-37] | – |
| – | > 300 µM | > 300 µM | > 300 µM | > 300 µM | – | O=S(=O)(Nc1ccc(O)c2ccccc12)c1cccc2cccnc12 [Compound C188-39] | – |

Second part, the compound before the results:

| Structure (SMILES) | Inhibition of STAT3 binding to pY-peptide compared with C188 (STAT3 [1]) | IC50 (STAT3 [1]) | IC50 (pSTAT3 (Tyr-705)) | IC50 (pSTAT5) | IC50 (pSTAT1 (Tyr-701)) | Inhibition of normal murine bone marrow colony formation [2] | IC50 (STAT3 [3]) |
| --- | --- | --- | --- | --- | --- | --- | --- |
| CC(C)OC(=O)C(C(=O)C(F)(F)F)c1cc(NS(=O)(=O)c2ccc(F)cc2)c2ccccc2c1O (stereo not shown) [Compound C188-7] | improved inhibition | 4.7 ± 2.1 µM | 10.5 ± 13.4 µM | > 300 µM | 35 ± 39.6 µM | inhibited | – |
| CC(C)OC(=O)C(C(=O)C(F)(F)F)c1cc(NS(=O)(=O)c2ccc3c4c(cccc24)C(=O)N3)c2ccccc2c1O (stereo not shown) [Compound C188-8] | improved inhibition | 4.5 ± 2.1 µM | 3.4 ± 0.9 µM | 23 µM | 35 ± 25.2 µM | inhibited | – |
| Cc1cc(C)c(C)c(S(=O)(=O)Nc2cc(SCC(=O)O)c(O)c3ccccc23)c1C [Compound C188-14] | activity similar to C188 | 8.7 ± 9.1 µM | 40.3 ± 50.8 µM | 10 µM | 57 µM | – | – |
| O=S(=O)(Nc1cc(Sc2nc[nH]n2)c(O)c2ccccc12)c1ccc(Br)cc1 [Compound C188-15] | improved inhibition | 1.5 ± 0.7 µM | 3.3 ± 0.2 µM | 12 ± 1.4 µM | – | inhibited | – |
| Cc1cc(C)c(S(=O)(=O)Nc2cc(Sc3nc[nH]n3)c(O)c3ccccc23)cc1C [Compound C188-18] | improved inhibition | 3.5 ± 0.7 µM | > 300 µM | > 300 µM | > 300 µM | – | – |
| COc1ccc(OC)c(S(=O)(=O)Nc2cc(Sc3ccccc3)c(O)c3ccccc23)c1 [Compound C188-19] | improved inhibition | 5.5 ± 4.9 µM | > 300 µM | > 300 µM | > 300 µM | – | – |
| CCOC(=O)c1c(C)oc2c1cc(NS(=O)(=O)c1cccc3cccnc13)c1ccccc12 [Compound C188-20] | – | 27 ± 25.5 µM | > 300 µM | > 300 µM | 9 µM | – | – |
| CCc1ccc(S(=O)(=O)Nc2cc3c(C(=O)OCCOC)c(C)oc3c3ccccc23)cc1 [Compound C188-22] | – | 73 ± 17 µM | > 300 µM | > 300 µM | > 300 µM | – | – |
| CC(=O)Nc1ccc(S(=O)(=O)Nc2cccc3ccccc23)cc1 [Compound C188-23] | – | > 300 µM | > 300 µM | > 300 µM | > 300 µM | – | – |
| O=[N+]([O-])c1ccc2c(c1)S(=O)(=O)C=C2 [Stattic] | – | – | – | – | – | – | 5.1 µM |
